Results on 16 molecules are retold here after patent publication US9340554B2, “IRAK inhibitors and uses thereof” (Nimbus Iris, Inc., priority 2011, dated 2016).

The assay deals with T1, IRAK4 (Homo sapiens, UniProt Q9NWZ3).
T1 construct: purchased CARNA Bioscience 09-145
T1 sequence (Q9NWZ3 1-460): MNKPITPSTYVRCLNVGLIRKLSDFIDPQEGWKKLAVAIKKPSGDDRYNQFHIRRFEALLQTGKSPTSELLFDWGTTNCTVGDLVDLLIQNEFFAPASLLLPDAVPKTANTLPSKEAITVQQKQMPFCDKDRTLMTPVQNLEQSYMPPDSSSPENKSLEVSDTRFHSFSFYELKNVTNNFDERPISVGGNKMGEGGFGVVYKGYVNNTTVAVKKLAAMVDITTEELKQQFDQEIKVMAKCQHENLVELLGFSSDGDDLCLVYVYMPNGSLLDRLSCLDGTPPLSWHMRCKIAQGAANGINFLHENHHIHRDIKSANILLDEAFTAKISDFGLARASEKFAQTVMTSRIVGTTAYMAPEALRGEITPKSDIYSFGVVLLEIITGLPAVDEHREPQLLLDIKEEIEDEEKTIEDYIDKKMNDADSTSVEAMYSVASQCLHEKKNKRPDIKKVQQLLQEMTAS
Nature of the assay: IRAK-4 activity inhibition assay (Caliper, Peptide 8, 37 μM ATP). Type of assay: biochemical. Conditions: 3.5 nM IRAK4, 1.5 μM Peptide 8, 37 μM ATP, 28° C. 40 minutes; read-out: IRAK-4 activity inhibition IC50. The protocol:
A 1× kinase base buffer was prepared from 50 mM HEPES, pH 7.5 and 0.0015% Brij-35. A stop buffer was prepared from 100 mM HEPES, pH 7.5, 0.015% Brij-35, 0.2% Coating Reagent #3, and 50 mM EDTA.
Test compound was diluted to 50× of the final desired highest inhibitor concentration in reaction by 100% DMSO. 100 ul of this compound dilution was transferred to a well in a 96-well plate.
Test compound was serially diluted by transferring 30 μl to 60 μl of 100% DMSO in the next well and so forth for a total of 10 concentrations. 100 μl of 100% DMSO was added to two empty wells for no compound control and no enzyme control in the same 96-well plate.
A new 96-well plate was marked as intermediate plate. 5 μl of compound serial dilution was transferred from source plate to the corresponding wells of the intermediate plate. 45 μl of 1× kinase base buffer (KB buffer) was added to each well of the intermediate plate. The intermediate plate was placed for 10 min on a shaker.
5 μl of each well was transferred from the 96-well intermediate plate to a 384-well plate in duplicates. […] A2 of the 96-well plate is transferred to A3 and A4 of the 384-well plate, and so on.
IRAK4 and DTT in 1× kinase base buffer was added.
Assay plate already contained 5 μl of compound in 10% DMSO. Added 10 μl of 2.5× enzyme solution to each well of the 384-well assay plate, except no enzyme control wells. […] Added 10 μl of 1× kinase base buffer to no enzyme control wells in the assay plate. Incubated at room temperature for 10 min.
Added 10 μl of 2.5× peptide solution to each well of the 384-well assay plate. […] Incubated at 28° C. for 40 minutes. Added 25 μl of stop buffer to stop reaction. Collected data on Caliper.
Copied conversion % data from Caliper program. Converted conversion % values to percent inhibition values. Percent inhibition=(max−conversion %)/(max−min)*100, where “max” means the conversion % of DMSO control and “min” means the conversion % of no enzyme control.
The compound numbers correspond to the compound numbers in Table 1. […] “NA” stands for “not assayed.”

As usually defined, the IC50 is the concentration that inhibits the measured activity by half. For `O=C(NCC(F)(F)F)C1CCN(c2ncnc3sc4c(c23)CCC4)CC1` [Compound I-33], the IC50 lay within 20 to 50 µM. Next, `CC1(C)CCc2sc3ncnc(N4CCC(C(N)=O)CC4)c3c2C1` [Compound I-46]: 20 to 50 µM; `CN(C)CC1CC(Oc2ncnc3sc4c(c23)CCC4)C1` (stereo not shown) [Compound I-141, 1-(3-((6,7-dihydro-5H-cyclopenta[4,5]thieno[2,3-d]pyrimidin-4-yl)oxy)cyclobutyl)-N,N-dimethylmethanamine]: 5 to 20 µM.

As to `CCN(Cc1ccccc1)[C@H]1CC[C@H](Oc2ncnc3sc4c(c23)CCC4)CC1` [Compound I-117, (1r,4r)-N-benzyl-4-((6,7-dihydro-5H-cyclopenta[4,5]thieno[2,3-d]pyrimidin-4-yl)oxy)-N-ethylcyclohexanamine], the IC50 was < 5 µM. Next, `C[N+](C)([O-])[C@H]1CC[C@H](Nc2ncnc3sc4c(c23)CCC4)CC1` [Compound I-128, N-[4-(dimethylnitroso)cyclohexyl]-7-thia-9,11-diazatricyclo[6.4.0.0[2,6]]dodeca-1(8),2(6),9,11-tetraen-12-amine]: 20 to 50 µM; `c1nc(OCC2CCNCC2)c2c3c(sc2n1)CCC3` [Compound I-60]: 5 to 20 µM; `CC1CCc2sc3ncnc(N[C@H]4CC[C@H](N)CC4)c3c2C1` (stereo partly drawn) [Compound I-51, trans-N^1-(6-methyl-5,6,7,8-tetrahydrobenzo[4,5]thieno[2,3-d]pyrimidin-4-yl)cyclohexane-1,4-diamine]: < 5 µM. For the molecule `O=C(CN[C@H]1CC[C@H](Oc2ncnc3sc4c(c23)CCC4)CC1)N1CCCC1` [Compound I-135, trans-1-(pyrrolidin-1-yl)-2-[(4-[7-thia-9,11-diazatricyclo[6.4.0.0[2,6]]dodeca-1(8),2(6),9,11-tetraen-12-yloxy]cyclohexyl)amino]ethan-1-one], the IC50 is < 5 µM. Then `O[C@H]1CCC[C@H](Nc2ncnc3sc4c(c23)CCC4)C1` (relative stereo) [Compound I-22, trans-3-((6,7-dihydro-5H-cyclopenta[4,5]thieno[2,3-d]pyrimidin-4-yl)amino)cyclohexanol], with 5 to 20 µM; and `CN[C@H]1CC[C@H](Nc2ncnc3sc(C)c(C)c23)CC1` [Compound I-44, trans-N^1-(5,6-dimethylthieno[2,3-d]pyrimidin-4-yl)-N^4-methylcyclohexane-1,4-diamine], with < 5 µM. Consider `O[C@H]1CC[C@H](Nc2ncnc3sc4c(c23)CCC4)CC1` [Compound I-7, trans-4-((6,7-dihydro-5H-cyclopenta[4,5]thieno[2,3-d]pyrimidin-4-yl)amino)cyclohexanol], for which the IC50 was 5 to 20 µM. In the case of `CN(CC(N)=O)[C@H]1CC[C@H](Nc2ncnc3sc4c(c23)CCC4)CC1` [Compound I-122, 2-(((1r,4r)-4-((6,7-dihydro-5H-cyclopenta[4,5]thieno[2,3-d]pyrimidin-4-yl)amino)cyclohexyl)(methyl)amino)acetamide], the IC50 is < 5 µM. With `CC(=O)N[C@H]1CC[C@H](Nc2ncnc3sc4c(c23)CCC4)CC1` [Compound I-11, N-(trans-4-((6,7-dihydro-5H-cyclopenta[4,5]thieno[2,3-d]pyrimidin-4-yl)amino)cyclohexyl)acetamide], the IC50 was in the range of 5 to 20 µM. Next, `CN[C@H]1CC[C@H](Nc2ncnc3sc4c(c23)CCCC4)CC1` [Compound I-53, trans-N^1-methyl-N4-(5,6,7,8-tetrahydrobenzo[4,5]thieno[2,3-d]pyrimidin-4-yl)cyclohexane-1,4-diamine]: < 5 µM; `CC1(C)CCc2sc3ncnc(N[C@H]4CC[C@H](O)CC4)c3c2C1` [Compound I-43, trans-4-((6,6-dimethyl-5,6,7,8-tetrahydrobenzo[4,5]thieno[2,3-d]pyrimidin-4-yl)amino)cyclohexanol]: 5 to 20 µM; `c1nc(N[C@H]2CC[C@H](N3CCCCC3)CC2)c2c3c(sc2n1)CCC3` [Compound I-143, N-((1r,4r)-4-(piperidin-1-yl)cyclohexyl)-6,7-dihydro-5H-cyclopenta[4,5]thieno[2,3-d]pyrimidin-4-amine]: < 5 µM.
